Literature values, collected in patent publication US6488942B1, “Disinfecting agent” (DDG Dental Devices GmbH, priority 1997, dated 2002).

CC(=O)O.CC(=O)O.NC(=N\CCCCCC/N=C(N)/N=C(\N)Nc1ccc(Cl)cc1)/N=C(\N)Nc1ccc(Cl)cc1 [diacetate, Chlorhexidine diacetate]
solubility in water: soluble in water
